In assay [1] the target is T1, Androgen receptor of prostate of rats (Rattus norvegicus, UniProt P15207).
T1 construct: The prostates were removed, weighed and homogenized at 0° C; from tissue; host or cells: rat prostate, 105,000 g supernatant (castrated male Sprague-Dawley rats)
T1 sequence (P15207 1-902): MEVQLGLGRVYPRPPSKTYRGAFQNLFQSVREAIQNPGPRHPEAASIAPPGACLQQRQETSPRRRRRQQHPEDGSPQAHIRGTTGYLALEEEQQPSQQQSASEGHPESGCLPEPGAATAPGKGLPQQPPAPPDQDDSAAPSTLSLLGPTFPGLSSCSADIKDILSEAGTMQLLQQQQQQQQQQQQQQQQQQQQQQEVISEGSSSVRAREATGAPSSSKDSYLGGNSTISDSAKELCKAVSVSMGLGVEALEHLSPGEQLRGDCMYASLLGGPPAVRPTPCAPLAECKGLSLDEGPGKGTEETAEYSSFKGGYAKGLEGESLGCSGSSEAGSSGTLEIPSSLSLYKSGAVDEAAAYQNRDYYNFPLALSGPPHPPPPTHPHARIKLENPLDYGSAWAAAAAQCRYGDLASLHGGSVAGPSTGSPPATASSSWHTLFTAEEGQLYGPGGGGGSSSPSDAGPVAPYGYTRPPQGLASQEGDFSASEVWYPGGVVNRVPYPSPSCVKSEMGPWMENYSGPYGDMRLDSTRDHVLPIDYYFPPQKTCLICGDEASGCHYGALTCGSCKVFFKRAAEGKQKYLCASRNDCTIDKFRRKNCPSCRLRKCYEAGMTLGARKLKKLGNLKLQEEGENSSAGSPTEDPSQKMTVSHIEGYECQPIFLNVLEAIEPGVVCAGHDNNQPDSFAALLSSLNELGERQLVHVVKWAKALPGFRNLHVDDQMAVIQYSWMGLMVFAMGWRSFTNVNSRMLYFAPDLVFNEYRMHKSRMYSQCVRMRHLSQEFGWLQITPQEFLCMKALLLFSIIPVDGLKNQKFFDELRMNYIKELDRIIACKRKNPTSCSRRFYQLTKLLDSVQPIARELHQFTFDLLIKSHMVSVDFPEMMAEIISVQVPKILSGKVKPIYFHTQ
Description: Androgen receptor binding (displacement of tritiated product P). Here is the method: B. Androgen receptor of prostate of rats
Male Sprague-Dawley EPOS rats weighing of 160 to 200 g were castrated and 24 hours later, the animals were killed. The prostates were removed, weighed and homogenized at 0° C. with a polytetrafluoroethylene-glass Potter with a buffered TS solution (Tris, 10 mM, 0.25M Saccharose, HCl-pH of 7.4) using 1 g of tissue per 5 ml of TS. The homogenate was then ultracentrifuged at 105,000 g for 60 […] (T) of product P or 17α-methyl-Δ^4,9,11 -estratriene-17β-ol-3-one in the presence of increasing concentration (0-1,000×10^-9 M) of either cold P, cold testosterone or the test compound. The concentration of tied tritiated (B) was measured for each incubate by the technique of adsorption on carbon-dextran.
(§1) The calculation of the relative affinity of […] (ARL) was identical for all of the above receptor tests. One traced the following two curves: the percentage of tied tritiated hormone B/T as a function of the logarithm of the cold hormone concentration and B/T as a function of the logarithm of the concentration of the cold test product. One determined the line of the equation. [formula]
(§2) The intersection of the I50 line and the curves permits one to determine the concentrations of the cold hormone of the reference (CH) and the cold test compound (CX) which inhibit by 50% the tieing of tritiated hormone with the receptor. The relative affinity of tieing (ARL) of the test product was determined by the equation: [formula]

Assay [2] deals with T2, Gluocorticoid receptor of thymus of rats (Rattus norvegicus, UniProt P06536).
T2 construct: The thymus were removed and homogenized at 0° C; from tissue; host or cells: rat thymus, 105,000 g supernatant (adrenalectomized male Sprague-Dawley rats)
T2 sequence (P06536 1-795): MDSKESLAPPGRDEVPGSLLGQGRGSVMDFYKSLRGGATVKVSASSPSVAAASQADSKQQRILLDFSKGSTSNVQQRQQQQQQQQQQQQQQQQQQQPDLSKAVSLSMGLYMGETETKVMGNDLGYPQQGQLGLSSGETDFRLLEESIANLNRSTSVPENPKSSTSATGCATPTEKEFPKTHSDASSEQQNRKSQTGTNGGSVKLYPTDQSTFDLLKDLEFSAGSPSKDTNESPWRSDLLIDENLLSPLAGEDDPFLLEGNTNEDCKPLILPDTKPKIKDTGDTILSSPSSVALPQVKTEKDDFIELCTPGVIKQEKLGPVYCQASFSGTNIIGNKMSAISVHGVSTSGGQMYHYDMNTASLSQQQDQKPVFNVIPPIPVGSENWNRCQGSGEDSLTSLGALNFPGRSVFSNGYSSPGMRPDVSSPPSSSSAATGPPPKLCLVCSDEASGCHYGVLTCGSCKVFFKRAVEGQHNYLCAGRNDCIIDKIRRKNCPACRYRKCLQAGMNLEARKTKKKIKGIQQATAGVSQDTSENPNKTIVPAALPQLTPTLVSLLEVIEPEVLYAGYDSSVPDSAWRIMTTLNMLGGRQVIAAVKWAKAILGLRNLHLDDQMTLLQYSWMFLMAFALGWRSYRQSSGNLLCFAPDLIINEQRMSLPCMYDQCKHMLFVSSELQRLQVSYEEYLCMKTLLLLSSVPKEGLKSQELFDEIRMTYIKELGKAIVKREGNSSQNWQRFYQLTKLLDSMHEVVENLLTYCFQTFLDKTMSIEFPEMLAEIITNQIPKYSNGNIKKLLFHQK
Kind of assay: Glucocorticoid receptor binding (displacement of tritiated dexamethasone). The note with it: incubation 4 H at 0° C. The protocol: D. Gluocorticoid receptor of thymus of rats
Male Sprague-Dawley EPOS rats weighing 160 to 200 g were surrenalectomized and the animals were killed 4 to 8 days later. The thymus were removed and homogenized at 0° C. in a buffered TS solution of 10 mM, Tris, 0.25M of Saccharose, 2 mM of dithiothreitol HCl for a pH of 7.4 using a polytetrafluoroethylene-glass Potter at a rate of 1 g of tissue per 10 ml of TS. […] The concentration of tied tritiated dexamethasone (B) was measured for each incubate by the adsorption on carbon-dextran technique.
as §1, §2

Assay [3] deals with T3, Estrogen receptor of uterus of mice (Mus musculus, UniProt P19785).
T3 construct: the uterus were removed and homogenized at 0° C; from tissue; host or cells: mouse uterus, 105,000 g supernatant (immature females 18 to 21 days old)
T3 sequence (P19785 1-599): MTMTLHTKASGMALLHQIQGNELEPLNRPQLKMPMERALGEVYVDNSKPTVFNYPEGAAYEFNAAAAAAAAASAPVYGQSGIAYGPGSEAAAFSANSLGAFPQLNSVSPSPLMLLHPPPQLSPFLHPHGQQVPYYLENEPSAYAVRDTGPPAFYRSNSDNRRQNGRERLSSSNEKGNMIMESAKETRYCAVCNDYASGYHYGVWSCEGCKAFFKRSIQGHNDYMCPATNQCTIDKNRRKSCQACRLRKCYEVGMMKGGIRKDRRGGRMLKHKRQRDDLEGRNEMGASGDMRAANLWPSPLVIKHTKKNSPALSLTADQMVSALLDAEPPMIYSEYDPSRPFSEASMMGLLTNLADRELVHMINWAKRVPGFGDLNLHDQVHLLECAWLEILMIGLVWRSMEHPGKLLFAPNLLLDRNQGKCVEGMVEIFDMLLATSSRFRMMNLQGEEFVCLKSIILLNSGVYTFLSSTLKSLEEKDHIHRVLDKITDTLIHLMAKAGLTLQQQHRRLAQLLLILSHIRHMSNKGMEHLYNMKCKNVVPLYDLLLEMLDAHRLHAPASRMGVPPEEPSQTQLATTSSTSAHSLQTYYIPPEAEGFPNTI
Description: Estrogen receptor binding (displacement of tritiated estradiol). Conditions: for agonist or antagonistic activity to estrogens: concluded from receptor affinity. The protocol: E. Estrogen receptor of uterus of mice
Immature female mice 18 to 21 days old were killed and the uterus were removed and homogenized at 0° C. with a polytetrafluoroethylene-glass Potter in a buffered TS solution consisting of 10 mM, Tris, 0125M Saccharose, HCl for a pH of 7.4 at a rate of 1 g of tissue per 25 ml of TS. The homogenate was then ultracentrigued at 105,000 g for 90 minutes at 0° C. and aliquoits of the resulting […] were incubated at 0° C. for a time (t) with a constant concentration (T) of tritiated estradiol in the presence of increasing concentrations (0 to 1000×10^-9 M) of either cold estradiol or cold test compound. The concentration of tied tritiated estradiol (B) was measured for each incubate by the technique of adsorption on carbon-dextran.
as §1, §2

Assay [4] deals with uterine endometrium. Description: Progestomimetic activity, oral, change in uterine endometrium (McPhail). It is filed as in vivo, immature female rabbits. Conditions: progesterone 0.2 mg/kg subcutaneously. Here is the method: (§3) IV. Progestomimetic and Anti-progestomimetic Activity
(§4) a) Groups of immature female rabbits weighing about 1 kg had administered to them subcutaneously from day 1 to day 5, 5 μg of estradiol. The product tested was afterward administered orally from day 8 to day 11 in a volume of 0.5 cm^3 of water containing 0.5% of carboxymethyl cellulose and 0.2% of Tween. On day 12, the rabbits were sacrificed, their uteruses were retained and fixed in Bouin's solution and histologically studied.
(§5) The changes in the uterine endometrium were noted according to the method of McPhail.

Assay [5] relates to uterine endometrium. Description: Anti-progestomimetic activity versus progesterone, oral, change in uterine endometrium (McPhail). It counts as in vivo, immature female rabbits. Conditions: progesterone 0.2 mg/kg subcutaneously, alone. Here is the method:
as §3, §4, §5

The subject of assay [6] is uterine endometrium. Description: Anti-progestomimetic activity versus progesterone, intrauterine, change in uterine endometrium (McPhail). Conditions: progesterone alone 10 μg/rabbit, method of McPhail. It counts as in vivo, immature female rabbits. The protocol: Groups of three immature female rabbits weighing about 1 kg were topically treated on the dorsal skin with 25 μg of estradiol in 10 μl of ethanol on day 1. On day 4 the product to be tested dissolved in 0.1 ml, of sesame oil containing 5% benzyl alcohol was introduced into a part of the uterus isolated between two ligatures. On the sixth day the animals were sacrificed, their uteruses retained and fixed in Bouin's solution for histological examination. Changes in the uterine endometrium were noted after the method of McPhail.

These results are taken from US5043332A, “Novel 11β-substituted -19-nor-steriods” (priority 1981, dated 1991).

Consider `CN(C)CCOc1ccc2c(c1)CC[C@@H]1[C@@H]2[C@@H](c2ccccc2)C[C@]2(C)[C@@H](O)CC[C@@H]12` [Example 15, 3-(2-dimethylamino-ethoxy)-11β-phenyl-Δ^1,3,5(10) -estratriene-17β-ol], for which the “relative affinity of tieing (ARL), Androgen” value (shortened to “relative affinity … Androgen”) in assay [1] (incubation 1/2H at 0° C.) is given as 1,3; in assay [1] (incubation 24 H at 0° C.) it was 0,2. Further, the “relative affinity of tieing (ARL), Glucocorticoid” value (“relative affinity … Glucocorticoid” below) in assay [2] came out at 2. The “relative affinity of tieing (ARL), Estrogen” value (“relative affinity … Estrogen” below) in assay [3] (incubation 2 H at 0° C.) and in assay [3] (incubation 5 H (25° C.)) was 0,1 in each case.

`CN(C)CCOc1ccc([C@H]2C[C@]3(C)[C@@H](O)CC[C@H]3[C@@H]3CCc4cc(O)ccc4[C@H]32)cc1` [Example 13, 11β-[4-(2-dimethylaminoethoxy)-phenyl]-Δ^1,3,5(10) -estratriene-3,17β-diol]: the “relative affinity … Androgen” value came to 5 in assay [1] (incubation 1/2H at 0° C.) and 6 in assay [1] (incubation 24 H at 0° C.). For the same molecule, in assay [2], the “relative affinity … Glucocorticoid” value is given as 3,9. Also, in assay [3], the “agonist or antagonistic activity to estrogens” value is recorded as “present an agonist or antagonistic activity to estrogens”. For the same molecule, the “relative affinity … Estrogen” value in assay [3] (incubation 2 H at 0° C.) amounted to 78; in assay [3] (incubation 5 H (25° C.)) it was 239.

With `CC(=O)[C@H]1CC[C@H]2[C@@H]3CCC4=CC(=O)CC[C@]4(C)[C@H]3CC[C@]12C` [Progesterone, progesterone, reference compound], the figures for the “CHANGE IN THE ENDOMETRIUM” value in the assay with uterine endometrium [4], in the assay on uterine endometrium [5] and in the assay on uterine endometrium [6] were 3.2 McPHAIL UNTS, 3.0 McPHAIL UNTS and 2.7, respectively.

Regarding `CN(C)CCOc1ccc([C@H]2C[C@]3(C)[C@@H](O)CC[C@H]3[C@@H]3CCc4ccccc4[C@H]32)cc1` [Example 14, 11β-[4-(2-dimethylaminoethoxy)-phenyl]-Δ^1,3,5(10) -estratriene-17β-ol], the “relative affinity … Androgen” value in assay [1] (incubation 1/2H at 0° C.) is on record as 10,6; in assay [1] (incubation 24 H at 0° C.), 0,5. Besides, in assay [2], the “relative affinity … Glucocorticoid” value is given as 0,4. Further, in assay [3], the “agonist or antagonistic activity to estrogens” value is on record as “present an agonist or antagonistic activity to estrogens”. Further, the “relative affinity … Estrogen” value in assay [3] (incubation 2 H at 0° C.) is 4,1; in assay [3] (incubation 5 H (25° C.)) it was 1,4.
